This is an account of results in ChEMBL document CHEMBL5137079, “Structure-Based Design of Xanthine-Benzimidazole Derivatives as Novel and Potent Tryptophan Hydroxylase Inhibitors” (J Med Chem, 2022).

Series [1] can be described thus: Solubility of the compound in simulated intestinal fluid at upto 200 uM by HPLC-UV analysis. The series is classed as physicochemical.
Series [2] is described as follows: Solubility of the compound in PBS at pH 7.4 at upto 200 uM by HPLC-UV analysis. In kind it is physicochemical.
A short description of series [3]: Solubility of the compound in simulated gastric fluid at upto 200 uM by HPLC-UV analysis. The series is classed as physicochemical.
The nature of series [4]: Metabolic stability in human hepatocytes assessed as half life. In kind it is ADME, cell-based, Hepatocyte.
The nature of series [5]: Metabolic stability in rat hepatocytes assessed as half life. In kind it is ADME, cell-based, Hepatocyte.
Series [6] is described as follows: Metabolic stability in rat hepatocytes assessed as intrinsic clearance. The series is classed as ADME, cell-based, Hepatocyte. To be noted: read-out: CLH.
Series [7] can be described thus: Metabolic stability in human hepatocytes assessed as intrinsic clearance. To be noted: read-out: CLH. In kind it is ADME, cell-based, Hepatocyte.
The nature of series [8]: AUCinfinity in ICR mouse plasma at 50 mg/kg, po administered as single dose measured for 1440 mins by LC-MS/MS analysis. In kind it is ADME, organism-based. Details: time 1440 min, dose 50 mg/kg, route po.
Series [9] can be described thus: AUCinfinity in ICR mouse brain at 50 mg/kg, po administered as single dose measured for 1440 mins by LC-MS/MS analysis. The series is classed as ADME, organism-based. Details: time 1440 min, dose 50 mg/kg, route po.

SMILES strings stand for the structures. Converted amounts (≈) assume the structure as drawn.

A word on the solubility: it is the dissolved amount per volume that the medium holds. A higher solubility goes with much dissolved substance. One may read the half-life as how long it takes for the measured level to halve. By AUC(0-inf) is commonly meant total exposure, with the tail of the curve extrapolated. Low values mean low exposure, high ones high exposure.

As for `CCn1c(=O)[nH]c(=O)c2c1nc(Cc1nc3ccccc3[nH]1)n2Cc1ccccc1`, the solubility in series [1] is 158 µM (≈ 63.2 µg/mL); in series [2], 181 µM (≈ 72.6 µg/mL); in series [3] it was 162 µM (≈ 64.8 µg/mL). Moreover, the half-life in series [4] turned out to be 12 min; in series [5], 60 min.
Taken in the same sequence, the figures for `O=c1[nH]c(=O)n(C2CC2)c2nc(Cc3nc4ccccc4[nH]3)n(Cc3ccccc3)c12` were 168 µM (≈ 69.2 µg/mL), 167 µM (≈ 69 µg/mL), 180 µM (≈ 74.1 µg/mL), 6 min and 35 min.
Take `O=c1[nH]c(=O)n(C2CC2)c2nc(Cc3nc4ccc(O)cc4[nH]3)n(Cc3ccccc3)c12`: the solubility in [1] is 185 µM (≈ 79.1 µg/mL); in series [2], 171 µM (≈ 73.4 µg/mL); in series [3], 165 µM (≈ 70.6 µg/mL). Besides, the CLint scaled in [6] and in series [7] was less than 115 mL/min/kg throughout. The half-life in series [4] and in series [5] was greater than 60 min in each case.
Turning to `CCCn1c(=O)[nH]c(=O)c2c1nc(Sc1nc3ccccc3[nH]1)n2Cc1ccccc1`, the solubility in series [1] is 150 µM (≈ 65 µg/mL); in series [2], 11.8 µM (≈ 5.1 µg/mL); in series [3] it was 173 µM (≈ 74.8 µg/mL). For the same compound, the results for the half-life in series [4] and in [5] were 4 min and 5 min, respectively.
For `O=c1[nH]c(=O)n(C2CC2)c2nc(Cc3nc4ccc(F)cc4[nH]3)n(Cc3ccccc3)c12`, the solubility is 154 µM (≈ 66.4 µg/mL) in series [1], greater than 200 µM in series [2] and 198 µM (≈ 85.4 µg/mL) in [3]. Moreover, in [6], the CLint scaled is less than 115 mL/min/kg. Moreover, the values for the half-life in series [4] and in series [5] were 32 min and greater than 60 min, respectively.
Regarding `COC(=O)c1ccc2nc(Cc3nc4c(c(=O)[nH]c(=O)n4C4CC4)n3Cc3ccccc3)[nH]c2c1`, the solubility in series [1] was 195 µM (≈ 91.8 µg/mL); in [2], 197 µM (≈ 92.8 µg/mL); in [3], 198 µM (≈ 93.2 µg/mL). Moreover, the CLint scaled in series [6] and in [7] was less than 115 mL/min/kg in each case. Also, the half-life in [4] and in series [5] was greater than 60 min in each case.
`N#Cc1ccc2nc(Cc3nc4c(c(=O)[nH]c(=O)n4C4CC4)n3Cc3ccccc3)[nH]c2c1`: the values for the solubility in series [1], in series [2] and in [3] were 196 µM (≈ 85.6 µg/mL), 154 µM (≈ 67.2 µg/mL) and 196 µM (≈ 85.8 µg/mL), respectively. Moreover, the CLint scaled in series [6] and in [7] was less than 115 mL/min/kg in each case. Further, the half-life in [4] and in series [5] was greater than 60 min in each case.
As to `CCn1c(=O)[nH]c(=O)c2c1nc(Cc1nc3cc4c(cc3[nH]1)OCO4)n2Cc1ccccc1`, the solubility is 166 µM (≈ 73.8 µg/mL) in series [1], 186 µM (≈ 82.8 µg/mL) in series [2] and 191 µM (≈ 84.8 µg/mL) in series [3]. For the same compound, the half-life in series [4] was greater than 60 min; in series [5] it was 60 min. Further, in series [7], the CLint scaled is less than 115 mL/min/kg. For the same compound, the total exposure AUC(0-inf) in series [8] stood at 7450 ng·h/mL; in series [9], 195 ng·h/mL.
As to `CCn1c(=O)[nH]c(=O)c2c1nc(Sc1nc3ccccc3[nH]1)n2Cc1ccccc1`, the results for the solubility in [1], in [2] and in series [3] were 176 µM (≈ 73.5 µg/mL), 5.3 µM (≈ 2.22 µg/mL) and 195 µM (≈ 81.5 µg/mL), respectively. Moreover, the half-life in series [4] worked out at 5 min; in series [5], 10 min.
On to `Cn1c(=O)[nH]c(=O)c2c1nc(Sc1nc3cc(NC(=O)CC[C@H](N)C(=O)O)ccc3[nH]1)n2Cc1ccccc1`, for which the solubility in series [1] was 116 µM (≈ 63.4 µg/mL); in series [2] it was 172 µM (≈ 94.2 µg/mL); in series [3], greater than 200 µM. Moreover, the CLint scaled in series [6] and in series [7] was less than 115 mL/min/kg throughout. Also, the half-life in series [4] and in series [5] was greater than 60 min each time.
As to `CCCn1c(=O)[nH]c(=O)c2c1nc(Cc1nc3cc(O)ccc3[nH]1)n2Cc1ccccc1`, the solubility is 159 µM (≈ 68.5 µg/mL) in series [1], greater than 200 µM in series [2] and 189 µM (≈ 81.3 µg/mL) in series [3]. For the same compound, the CLint scaled in series [6] and in [7] was less than 115 mL/min/kg each time. The half-life in series [4] and in series [5] was greater than 60 min each time.
As for `O=c1[nH]c(=O)n(C2CC2)c2nc(Cc3nc4ccc(OCCO)cc4[nH]3)n(Cc3ccccc3)c12`, the solubility was 189 µM (≈ 89.2 µg/mL) in [1], 186 µM (≈ 87.7 µg/mL) in series [2] and 186 µM (≈ 87.9 µg/mL) in series [3]. The CLint scaled in series [6] and in series [7] was less than 115 mL/min/kg throughout. Besides, the half-life in [4] and in series [5] was greater than 60 min each time.
For the compound `O=c1[nH]c(=O)n(C2CC2)c2nc(Cc3nc4cc5c(cc4[nH]3)OCO5)n(Cc3ccccc3)c12`, the figures for the solubility in [1], in [2] and in series [3] were 191 µM (≈ 87.3 µg/mL), 22.9 µM (≈ 10.5 µg/mL) and 193 µM (≈ 87.9 µg/mL), respectively. The CLint scaled in [6] and in series [7] was less than 115 mL/min/kg in each case. In addition, the half-life in series [4] and in series [5] was greater than 60 min throughout.
Take `COc1ccc2nc(Cc3nc4c(c(=O)[nH]c(=O)n4C4CC4)n3Cc3ccccc3)[nH]c2c1`: the figures for the solubility in series [1], in series [2] and in series [3] were 195 µM (≈ 86.3 µg/mL), 197 µM (≈ 87.1 µg/mL) and 162 µM (≈ 71.6 µg/mL), respectively. Moreover, the CLint scaled in series [6] was less than 115 mL/min/kg. The half-life in [4] was 6 min; in series [5], greater than 60 min.
